Laboratory results from article PMC11352108, “Anti-Biofilm and Anti-Inflammatory Properties of the Truncated Analogs of the Scorpion Venom-Derived Peptide IsCT against Pseudomonas aeruginosa” (Antibiotics, 2024).
Values joined by “and” are separate entries in the source; they are usually repeats but may differ in a detail not shown here. Equal values may be shown once. Where no end group is shown, it is not given here.

Tests used:
[1] = tested on: P. aeruginosa PAO1 biofilms; assay: Biofilm susceptibility assay (crystal violet); assay type: cell-based, Pseudomonas aeruginosa; settings: 150 μM, 24 h, 37 °C, 10^6 CFU/mL, OD 550 nm, compared with untreated control
Protocol: The effect of the truncated IsCT analogs on biofilms of P. aeruginosa was assessed using a method that was described previously. Briefly, 100 μL of the test peptides (final concentration, 150 μM) was added to each well of a 96-well microtiter plate (Nunc^TM, Roskilde, Denmark). Then, an aliquot of P. aeruginosa PAO1 culture was added to each well to obtain a final concentration of 10^6 CFU/mL. The bacterial culture alone was included as an untreated control. Following a 24-h incubation at 37 °C, unattached planktonic cells were discarded, and the wells were carefully washed twice with PBS with a pH of 7.4. Thereafter, biofilm biomasses were quantified by 0.1% crystal violet staining. After excess stains were discarded, the wells were washed with PBS pH 7.4 and left to air dry for 2 h at 37 °C. The biofilm biomass was subsequently dissolved by the addition of 30% acetic acid, and the plates were spectrophotometrically read at 550 nm using a BioTek Synergy HT microplate reader.

[2] = tested on: pyocyanin production by P. aeruginosa PAO1; assay: Pyocyanin assay (chloroform extraction); assay type: cell-based, Pseudomonas aeruginosa; settings: 24 h, 37 °C; for Pyocyanin production (%control), Exp.1: replicate Exp.1; for Pyocyanin production (%control), Mean: mean of Exp.1-3; for Pyocyanin production (%control), Exp.2: replicate Exp.2; for Pyocyanin production (%control), Exp.3: replicate Exp.3
Protocol: The effect of IsCT-Δ6-8 peptide on the production of pyocyanin pigments produced by P. aeruginosa PAO1 was assessed using the protocol described previously. In brief, 750 μL of P. aeruginosa culture (10^8 CFU/mL, final concentration) and 250 μL of the test peptide prepared in LB broth (final concentrations ranged from 37.5 μM to 150 μM) were incubated at 37 °C for 24 h with agitation (150 rpm). A P. aeruginosa culture without the IsCT-Δ6-8 peptide served as an untreated control. Thereafter, supernatants were collected by centrifugation at 3900× g for 10 min, and pyocyanin pigment was extracted twice using chloroform/0.2 N HCl. Centrifugation was performed at 3900× g for 10 min before the pink-colored solution was collected, and the absorbance was measured at […].

## ILGKIIKSLF [IsCT-Δ6-8]
[1]
  Decrease in P. aeruginosa biofilm biomass: 33.12% and 33%
[2]; 37.5 µM, 10^8 CFU/mL, LB broth, absorbance 380 nm
  Pyocyanin production (%control), Exp.1: 124.961 %control
[2]; 37.5 µM
  Pyocyanin production (%control), Mean: 82.972 %control
  Pyocyanin production (%control), Exp.2: 54.723 %control
  Pyocyanin production (%control), Exp.3: 69.231 %control
[2]; 75 µM
  Pyocyanin production (%control), Mean: 69.677 %control
  Pyocyanin production (%control), Exp.1: 120.493 %control
  Pyocyanin production (%control), Exp.2: 42.094 %control
  Pyocyanin production (%control), Exp.3: 46.444 %control
[2]; 150 µM
  Pyocyanin production (%control), Mean: 48.905 %control
  Pyocyanin production (%control), Exp.1: 76.348 %control
  Pyocyanin production (%control), Exp.2: 36.550 %control
  Pyocyanin production (%control), Exp.3: 33.817 %control
